The results in this text go back to article PMC8982737, “Discovery of S-217622, a Noncovalent Oral SARS-CoV-2 3CL Protease Inhibitor Clinical Candidate for Treating COVID-19” (Journal of Medicinal Chemistry, 2022).

The structures appear in SMILES notation. Like-named read-outs stand apart in the source and are kept apart here. Bounds are passed on as bounds.

One data set concerns HCoV-229E. Kind of data set: microbe, parasite or virus in culture. Type of data set: cell-based. Conditions: Human coronavirus 229E, MRC5, read-out: EC50 against HCoV-229E.
The subject of another data set is VeroE6/TMPRSS2 cells. Conditions: African green monkey.
The next data set has as its system SARS-CoV. Kind of data set: microbe, parasite or virus in culture. Type of data set: cell-based. Conditions: Severe acute respiratory syndrome coronavirus, VeroE6/TMPRSS2, read-out: EC50 against SARS-CoV.
The next data set deals with SARS-CoV-2. Kind of data set: microbe, parasite or virus in culture. The class given is cell-based.
The subject of a further data set is HCoV-OC43. As to the kind of experiment: microbe, parasite or virus in culture. Type of data set: cell-based. The note with it: Betacoronavirus 1, OC43, MRC5, read-out: EC90 against HCoV-OC43.
The next data set has as its system MERS-CoV. As to the kind of experiment: microbe, parasite or virus in culture. The note with it: Middle East respiratory syndrome-related coronavirus, VeroE6/TMPRSS2, read-out: EC50 against MERS-CoV. Type of data set: cell-based.
The target of a further data set is SARS-CoV-2 3CL protease (Severe acute respiratory syndrome coronavirus 2, UniProt P0DTD1). As to the kind of experiment: biochemical. The class given is biochemical. The note with it: for IC50: read-out: SARS-CoV-2 3CLpro IC50.
For data set [1] the following is noted: male, Sprague-Dawley, rat, in vivo; for CL (total clearance): iv.
For data set [2] the following is noted: both, human, microsomes, 0.5 h, 0.5 μM, pH 7.4.
The conditions of data set [3]: male, rat, microsomes, 0.5 h, 0.5 μM, pH 7.4.

In general, CC50 refers to the concentration that lowers cell viability or growth by half. In general, EC90 refers to the concentration at which the effect reaches the 90% level. On to `CCC(CC)COC(=O)[C@H](C)N[P@](=O)(OC[C@H]1O[C@@](C#N)(c2ccc3c(N)ncnn23)[C@H](O)[C@@H]1O)Oc1ccccc1` [Remdesivir, reference compound], for which the EC50 in the data set on HCoV-229E turned out to be 0.041 µM; with SARS-CoV it was 1.3 µM; with SARS-CoV-2 (Severe acute respiratory syndrome coronavirus 2, VeroE6/TMPRSS2, strain hCoV-19/Japan/QHN001/2020 (Alpha, B.1.1.7), mean, read-out: EC50 on cytopathic effects), 0.97 µM; with SARS-CoV-2 (Severe acute respiratory syndrome coronavirus 2, VeroE6/TMPRSS2, strain hCoV-19/Japan/QHN002/2020 (Alpha, B.1.1.7), mean, read-out: EC50 on cytopathic effects) it was 0.99 µM; in the data set on SARS-CoV-2 (Severe acute respiratory syndrome coronavirus 2, VeroE6/TMPRSS2, strain hCoV-19/Japan/QK002/2020 (Alpha, B.1.1.7), mean, read-out: EC50 on cytopathic effects), 0.87 µM; in the data set with SARS-CoV-2 (Severe acute respiratory syndrome coronavirus 2, VeroE6/TMPRSS2, strain hCoV-19/Japan/TY7-501/2021 (Gamma, P.1), mean, read-out: EC50 on cytopathic effects), 2.1 µM. In addition, the EC50 in the data set on SARS-CoV-2 (Severe acute respiratory syndrome coronavirus 2, VeroE6/TMPRSS2, strain hCoV-19/Japan/TY7-503/2021 (Gamma, P.1), mean, read-out: EC50 on cytopathic effects) stood at 1 µM; in the data set with SARS-CoV-2 (Severe acute respiratory syndrome coronavirus 2, VeroE6/TMPRSS2, strain hCoV-19/Japan/TY8-612/2021 (Beta, B.1.351), mean, read-out: EC50 on cytopathic effects), 1.2 µM; in the data set on SARS-CoV-2 (Severe acute respiratory syndrome coronavirus 2, VeroE6/TMPRSS2, strain hCoV-19/Japan/TY11-927-P1/2021 (Delta, B.1.617.2), mean, read-out: EC50 on cytopathic effects), 1.6 µM; in the data set with SARS-CoV-2 (Severe acute respiratory syndrome coronavirus 2, VeroE6/TMPRSS2, strain hCoV-19/Japan/TY38-873/2021 (Omicron, B.1.1.529), mean, read-out: EC50 on cytopathic effects), 1.1 µM; in the data set on SARS-CoV-2 (Severe acute respiratory syndrome coronavirus 2, VeroE6/TMPRSS2, read-out: EC50 on cytopathic effects) it was 1.9 µM; in the data set with MERS-CoV, 1.5 µM. The CC50 in the data set on VeroE6/TMPRSS2 cells was greater than 100 µM. In addition, the EC90 with HCoV-OC43 is 0.024 µM.

The IC50 is the point on the concentration scale where inhibition reaches its midpoint. Turning to `CNC(=O)Cn1c(=O)[nH]/c(=N\c2cc3sc(C)nc3cc2C)n(Cc2ccccc2F)c1=O` [Compound 17], at SARS-CoV-2 3CL protease, the IC50 worked out at 35 µM.

With `CNC(=O)Cn1c(=O)[nH]/c(=N\c2ccc(OC)cc2C)n(Cc2cc(F)c(F)c(F)c2)c1=O` [Compound 13], the IC50 at SARS-CoV-2 3CL protease turned out to be 1.9 µM.

Turning to `CNC(=O)Cn1c(=O)nc(Nc2cc3sc(C)nc3cc2C)n(Cc2ccc(F)cc2)c1=O` [Compound 19], the IC50 at SARS-CoV-2 3CL protease was 16 µM.

Regarding `CNC(=O)Cn1c(=O)nc(Nc2cc3sc(C)nc3cc2C)n(Cc2cccc(F)c2)c1=O` [Compound 18], the IC50 on SARS-CoV-2 3CL protease came to 29 µM.

Consider `CNC(=O)Cn1c(=O)[nH]/c(=N\c2cc3sc(C)nc3cc2C)n(Cc2ccccc2)c1=O` [Compound 16], for which, on SARS-CoV-2 3CL protease, the IC50 amounted to 58 µM.

Regarding `CNC(=O)Cn1c(=O)[nH]/c(=N\c2ccc(OC)cc2)n(Cc2cc(F)c(F)c(F)c2)c1=O` [Compound 14], on SARS-CoV-2 3CL protease, the IC50 turned out to be 2.8 µM.

For `CNC(=O)Cn1c(=O)nc(Nc2cc3sc(C)nc3cc2C)n(Cc2cc(F)c(F)c(F)c2)c1=O` [Compound 15], at SARS-CoV-2 3CL protease, the IC50 was found to be 3.5 µM.

Regarding `CNC(=O)Cn1c(=O)[nH]/c(=N\c2ccc(OC(F)F)cc2C)n(Cc2cc(F)c(F)c(F)c2)c1=O` [Compound 1, (4E)-2-(4-{[4-(Difluoromethoxy)-2-methylphenyl]imino}-2,6-dioxo-3-(3,4,5-trifluorobenzyl)-1,3,5-triazinan-1-yl)-N-methylacetamide], in [1], the “CL (total clearance)” value came out at 7.3 mL/min/kg and the “Oral F (oral bioavailability)” value stood at 111%. In addition, the IC50 on SARS-CoV-2 3CL protease was found to be 8.6 µM.

Consider `CNC(=O)Cn1c(=O)[nH]/c(=N\c2cc3cn(C)nc3cc2Cl)n(Cc2cc(F)c(F)c(F)c2)c1=O` [Compound 2, (4E)-2-{4-[(6-Chloro-2-methyl-2H-indazol-5-yl)imino]-2,6-dioxo-3-(3,4,5-trifluorobenzyl)-1,3,5-triazinan-1-yl)-N-methylacetamide], for which, in [2], the “HLM, percentage remaining after 30 min” value stood at 94.8%. Also, in data set [1], the “CL (total clearance)” value worked out at 4.9 mL/min/kg and the “Oral F (oral bioavailability)” value was 29.6%. In addition, the half-inhibitory concentration (IC50) on SARS-CoV-2 3CL protease stood at 0.096 µM. Also, the “improvement in enzymatic inhibitory activity” value on SARS-CoV-2 3CL protease (relative to hit compound 1) was determined as 90 fold. The EC50 in the data set on SARS-CoV-2 (Severe acute respiratory syndrome coronavirus 2, VeroE6/TMPRSS2, molecular formula strings csv, read-out: VeroE6/TMPRSS2 EC50) was 12.5 µM. Also, the “RLM, percentage remaining after 30 min” value in data set [3] was determined as 94.3%.
